Consider two molecules from PMC10385664, “Projection of Target Drug Particle Size in Oral Formulations Using the Refined Developability Classification System (rDCS)” (Pharmaceutics, 2023).

The term pKa denotes the negative logarithm of the acid dissociation constant.

A short description of series [1]: pKa by Fast UV spectrometric titration (SiriusT3). It counts as physicochemical. As to conditions: water/methanol mixtures; Yasuda–Shedlovsky extrapolation from water/methanol titrations, 25 °C; low absorbance, value to be treated with caution. The source says: A high-throughput spectrometric screening assay (Fast UV method) using the SiriusT3 (Pion Inc., Billerica, MA, USA) was applied. Samples were titrated under varying water/methanol ratios and apparent pKa values were extrapolated using the Yasuda–Shedlovsky extrapolation. The experimental details are provided in Supplementary Materials. Measured pKa values are presented as means (±SD) and were compared to literature values as well as in silico predictions using the software ADMET Predictor version 9 (Simulations Plus Inc., Lancaster, CA, USA) and ACD/Labs Release 2021.1.2 (Advanced Chemistry Development Inc., Toronto, ON, Canada). […]
r0 2 ∙ ρ ∙IDR∙Dose ൌ DF ∙ PefRsi ∙mdissolved (r0 < 30 μm, hparticle = r0) (S39) […]
spectrometric screening assay (Fast UV method) using an automated titrator system with an incorporated UV‐Vis spectrometer (SiriusT3, Pion Inc., Billerica, MA, USA). […] The pKa values were determined from three titrations with different water/methanol ratios and extrapolation of apparent pKa values in the presence of co‐solvents using the Yasuda‐Shedlovsky extrapolation. Measured pKa values are presented as means with standard deviation and were compared to literature va lues and predictions using the software ADMET Predictor

A further series relates to Caco-2 cells. Kind of series: Caco-2 permeability assay (pH 6.5/7.4 gradient, ± elacridar). Here is the method: In vitro permeability studies were performed at Cyprotex Discovery Ltd. (Macclesfield, UK) using a high-throughput Caco-2 permeability assay. Permeability at 37 °C was assessed from the apical to basolateral side (A⟹B) and in opposite direction (B⟹A) applying a pH gradient with pH 6.5 in the apical and pH 7.4 in the basolateral compartment (Hanks Balanced Salt Solution, HBSS). After an incubation of 120 min, samples were diluted for analysis via liquid chromatography coupled with tandem mass spectrometry (LC-MS/MS). […] Experiments were performed in absence and presence of the P-glycoprotein (P-gp) inhibitor elacridar (10 µM) to study transporter-mediated efflux effects. The dosing solutions contained the API (10 µM) in HBSS, and DMSO in a concentration of ≤1% v/v. Lucifer yellow (100 µM) was included as fluorescent integrity marker. Further experimental details are provided in Supplementary Materials.
The apparent permeability coefficients (Papp) were calculated according to Equation (27):(27) Papp=dQ/dt/C0·A where dQ/dt is the permeation rate of the API across the cell monolayer, C0 is the starting concentration of the API in the dosing solution and A is the surface area of the cell monolayer. The efflux ratios (ERs) were calculated from the B⟹A and A⟹B Papp values to estimate whether P-gp mediated efflux was involved in the transport of the APIs. The mass balance (% recovery) was calculated from the sum of the API recovered from the acceptor and donor compartments at the end of the experiment, divided by the initial donor amount.
Table S6. Gradient of the UPLC method for analysis of lemborexant.
Table S7. Gradient of the UPLC method for analysis of istradefylline.
S.2.5. rDCS Standard Investigations: Caco‐2 permeability studies
Caco‐2 cells were obtained from the American Type Culture Collection (ATCC, Manassas, VA, USA) and used between passage numbers 40 to 60. The cells were seeded onto Millipore Multiscreen Transwell plates at a density of 1 x 10^5 cells/cm2 and cultured in Dulbeccoʹs Modified Eagleʹs Medium (DMEM). The medium was changed every two or three days. Ce l l culture was carried out at 37 °C in an atmosphere of 5 % CO2 with a relative humidity of 95 %. The permeability assay was performed on day 20.
In vitro permeability was assessed wit h a high‐throughput Caco‐2 permeability assay. The assay was prepared by rinsing apical and basolateral monolayer surfaces twice with Hanks Balanced Salt Solution (HBSS) at the desired pH and 37 °C. Subsequently, cells in the apical and basolateral compartments were incubated with HBSS at the desired pH for 40 min. A pH gradient with pH 6.5 in the apical compartment and pH 7.4 in the basolateral compartment was applied. Dosing solutions containing the API (10 μ M) were prepared by diluting a concentrated API solution in DMS O with HBSS. The final DMSO concentration was ≤ 1% v/v. Lucifer yellow (100 μM) was included in the dosing solution as fluorescent integrity marker. For the assessment of the permeability from the apical to basolateral side (A⟹B), HBSS in the apical compartment was replaced with the dosing solution. The apical inserts were placed into a companion plat e containing fresh buffer with 1% v/ v DMSO. For the assessment of the permeability from the basolateral to […]
apical side (B⟹A), HBSS was removed from the companion plate and replaced with the solution of drug in HBSS. Fresh HBSS was added to the apical insert, which was then placed into the companion plate.
Experiments were performed in absence and presence of the P‐glycoprotein (P‐gp) inhibitor elacridar (10 μM) to study transporter‐mediated efflux effects. In those experiments, elacridar was included in both compartments during the equilibration time and assay. The starting concentration (C0) was confirmed by sampling from the dosing solution immediately before dosing into the cell pl ates. After incubation of 120 minutes, the apical inserts and companion plates were separated for sampling from both compartments.
Background: Passage across Caco-2 layers is used to estimate intestinal permeability.

`Cc1ncc(OC[C@@]2(c3cccc(F)c3)C[C@H]2C(=O)Nc2ccc(F)cn2)c(C)n1` [Lemborexant, lemborexant]: the pKa in series [1] is 2.18 ± 0.05. Also, the permeability assessment result with Caco-2 cells (against antipyrine, propranolol and atenolol as comparators) is reported as “highly permeable”.

Take `C[C@@H](c1ncncc1F)[C@](O)(Cn1cncn1)c1ccc(F)cc1F` [Voriconazole, voriconazole]: in the series with Caco-2 cells (Caco-2), the permeability assessment result is reported as “high permeability”.
